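Grown in 96-well plates, cells were treated for 48 hours with each compound at five concentrations. Insufficient inhibition: endpoint recorded as highest concentration tested. GI50 = concentration required for 50% inhibition of growth.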 The source made the active and inactive calls. Rule as the data show it: active = GI50 up to about 1.1 µM and inactive = higher. Where only a bound is given, the exact number is not on record here.

Among the test systems are M14; SF-268; SF-539; DU-145; SR; NCI/ADR-RES; 786-0; UACC-62; HL-60; MOLT-4; SN12C; HOP-92; OVCAR-3; RPMI-8226; HCT-116; EKVX; PC-3; HCT-15; LOX IMVI; SK-MEL-2.
Holding throughout (assay): NCI anticancer screen, dose series, 48 h

Take `CC(=O)N1CCN(C23OC4(N5CCN(C(C)=O)CC5)C5C6CC(C7C6C4C72)C53)CC1` (stereo not given): the GI50 with M14, in the assay on SF-268, with SF-539, in the assay with DU-145, in the assay with SR and with NCI/ADR-RES was > 100 µM (inactive) each time. For the same molecule, the GI50 in the assay on 786-0, in the assay with UACC-62, in the assay on HL-60, in the assay on MOLT-4, in the assay with SN12C and in the assay on HOP-92 was > 100 µM (inactive) each time. For the same molecule, the GI50 with OVCAR-3 is > 100 µM (inactive); in the assay on RPMI-8226, > 100 µM (inactive); with HCT-116, > 100 µM (inactive); in the assay with EKVX, > 100 µM (inactive); with PC-3, > 100 µM (inactive); in the assay on HCT-15 it was over 100 µM. Also, the GI50 with LOX IMVI and in the assay on SK-MEL-2 was > 100 µM (inactive) each time.
Turning to `COc1cc(-c2oc3c(OC)c(O)cc(O)c3c(=O)c2OC)ccc1O`, the GI50 was 4.12 µM (inactive) with M14; 3.08 µM (inactive) with SF-268; 5.47 µM (inactive) in the assay with SF-539; 7.06 µM (inactive) with DU-145; 3.24 µM (inactive) with SR; 10.8 µM (inactive) in the assay with NCI/ADR-RES. The GI50 was 16.9 µM (inactive) with 786-0; 3.61 µM (inactive) in the assay on UACC-62; 3.56 µM (inactive) in the assay on HL-60; 4.92 µM (inactive) in the assay on MOLT-4; 13.1 µM (inactive) in the assay on SN12C; 3.83 µM (inactive) in the assay with HOP-92. Besides, the GI50 was 2.68 µM (inactive) with OVCAR-3; 4.09 µM (inactive) in the assay on RPMI-8226; 6.4 µM (inactive) in the assay on HCT-116; 21.8 µM (inactive) with EKVX; 6.44 µM (inactive) in the assay on PC-3; 3.67 µM in the assay with HCT-15. Moreover, the GI50 in the assay on LOX IMVI is 4.12 µM (inactive); in the assay with SK-MEL-2, 2.75 µM (inactive).
Take `CC(C)(C)[Si](C)(C)OCC1CCC(n2cnc3c(NC(=O)c4ccccc4)ncnc32)O1` (stereo not given): the GI50 with M14 is 16.7 µM (inactive); with SF-268 it was 17.7 µM (inactive); in the assay with SF-539, 18.3 µM (inactive); with DU-145, 19.4 µM (inactive); in the assay with SR it was 29.9 µM (inactive); in the assay on NCI/ADR-RES, 16.6 µM (inactive). Moreover, the GI50 was 17.5 µM (inactive) in the assay with 786-0; 14 µM (inactive) in the assay on UACC-62; 18 µM (inactive) with HL-60; 18.2 µM (inactive) in the assay on MOLT-4; 18 µM (inactive) with SN12C; 16.6 µM (inactive) in the assay with HOP-92. The GI50 in the assay with OVCAR-3 was 14 µM (inactive); with RPMI-8226, 33 µM (inactive); in the assay with HCT-116 it was 19 µM (inactive); with EKVX, 17.6 µM (inactive); in the assay on PC-3 it was 20.6 µM (inactive); with HCT-15, 18.6 µM. Besides, the GI50 in the assay with LOX IMVI was 20.2 µM (inactive); with SK-MEL-2 it was 19 µM (inactive).
Take `O=[N+]([O-])c1cccc2nc3ccccc3c(NCCCN3CCCCC3)c12`: the GI50 was 0.0116 µM (active) with M14; 0.0191 µM (active) in the assay on SF-268; 0.0163 µM (active) in the assay on SF-539; < 0.01 µM (active) with DU-145; < 0.01 µM (active) with SR; 0.418 µM (active) in the assay on NCI/ADR-RES. Also, the GI50 with 786-0 is < 0.01 µM (active); in the assay on UACC-62 it was 0.0151 µM (active); in the assay with HL-60 it was 0.0252 µM (active); with MOLT-4 it was < 0.01 µM (active); in the assay with SN12C it was < 0.0105 µM (active); in the assay on HOP-92 it was < 0.01 µM (active). The GI50 in the assay on OVCAR-3 is < 0.0126 µM (active); with RPMI-8226, < 0.01 µM (active); in the assay on HCT-116, < 0.01 µM (active); with EKVX, < 0.01 µM (active); in the assay on PC-3 it was < 0.01 µM (active); with HCT-15, 0.0158 µM. Further, the GI50 is 0.0194 µM (active) with LOX IMVI and 0.0148 µM (active) in the assay with SK-MEL-2.
With `C/C(=N\NC(=S)N1CCC(N2CCCCC2)CC1)c1ccccn1`, the GI50 in the assay with M14 is 1.87 µM (inactive); with SF-268, 3.68 µM (inactive); with SF-539, 3.11 µM (inactive); in the assay on DU-145 it was 3.72 µM (inactive); with SR it was 0.519 µM (active); in the assay on NCI/ADR-RES, 2.26 µM (inactive). Besides, the GI50 with 786-0 was 12.7 µM (inactive); in the assay on UACC-62 it was 3.33 µM (inactive); in the assay with HL-60, 0.796 µM (active); with MOLT-4, 0.586 µM (active); in the assay on SN12C, 2.7 µM (inactive); in the assay on HOP-92, 2.92 µM (inactive). The GI50 in the assay on OVCAR-3 was 2.4 µM (inactive); with RPMI-8226, 2.2 µM (inactive); in the assay with HCT-116, 2.79 µM (inactive); with EKVX, 3.4 µM (inactive); in the assay with PC-3, 3.56 µM (inactive); in the assay with HCT-15 it was 2.4 µM. The GI50 is 2.82 µM (inactive) in the assay on LOX IMVI and > 100 µM (inactive) in the assay with SK-MEL-2.
With `CCOC(=O)Nc1ccc(S(=O)(=O)Nc2ccc(Br)cc2)cc1`, the GI50 in the assay with M14 is 49.3 µM (inactive); with SF-268, 28.2 µM (inactive); in the assay with SF-539 it was 17.2 µM (inactive); in the assay with DU-145 it was 65.5 µM (inactive); with SR it was 18.2 µM (inactive); in the assay with NCI/ADR-RES it was 34.4 µM (inactive). The GI50 is 36.8 µM (inactive) in the assay on 786-0; 22.4 µM (inactive) in the assay with UACC-62; 25.6 µM (inactive) in the assay with HL-60; 26.9 µM (inactive) with MOLT-4; 59.8 µM (inactive) in the assay on SN12C; 43.7 µM (inactive) with HOP-92. In addition, the GI50 in the assay on OVCAR-3 was 36.3 µM (inactive); with RPMI-8226, 25.1 µM (inactive); in the assay with HCT-116 it was 39.7 µM (inactive); with EKVX, 29.2 µM (inactive); in the assay on PC-3, 41 µM (inactive); in the assay with HCT-15 it was 61.5 µM. Further, the GI50 in the assay with LOX IMVI was 26.4 µM (inactive); with SK-MEL-2 it was 47.1 µM (inactive).
Regarding `Cc1ccc2nc(C(=O)O)c(=O)[nH]c2c1`, the GI50 with M14, in the assay with SF-268, with SF-539, in the assay on DU-145, with SR and in the assay on NCI/ADR-RES was > 100 µM (inactive) in each case. Further, the GI50 in the assay on 786-0, in the assay with UACC-62, in the assay on HL-60, in the assay with MOLT-4, in the assay on SN12C and in the assay on HOP-92 was > 100 µM (inactive) throughout. Moreover, the GI50 in the assay on OVCAR-3 is > 100 µM (inactive); with RPMI-8226, > 100 µM (inactive); in the assay with HCT-116, > 100 µM (inactive); in the assay on EKVX, > 100 µM (inactive); in the assay with PC-3, > 100 µM (inactive); with HCT-15, over 100 µM. Also, the GI50 with LOX IMVI and with SK-MEL-2 was > 100 µM (inactive) in each case.

These data come from ChEMBL document CHEMBL1201862, “PubChem BioAssay data set” (2004).
